Tests used:
[1] = pHLM without co-substrates of phase II reactions; ref Haschimi et al., [2019]; cited from earlier work
[2] = Esterases activity screening, pHLS9; type: in vitro ADME, human; parameters: key: +, detected; –: −, not detected; settings: 100 μM 4F-MDMB-BINACA, 0.2 mg protein/ml, duplicate
Method: (§1) Experiments were performed in accordance with a previous study (Meyer et al., [2015]) with minor modifications. The final volume per reaction tube was 100 μl with a final 4F-MDMB-BINACA concentration of 100 μM and enzyme concentration of 0.2 mg protein/ml for hCES1b, hCES1c, and hCES2. Incubations with pHLM and pHLS9 (0.2 mg protein/ml, each) were performed in a similar manner. Additionally, incubations with human plasma (50 μl pooled human plasma, 40 μl phosphate buffer, and 10 μl substrate) were performed. The reactions were started by adding the enzyme-containing preparation and terminated with an equal volume of ice-cold acetonitrile containing diazepam-d5 (100 μM) as an internal standard. Only plasma incubations were terminated by addition of a three-fold volume of ice-cold acetonitrile. The reaction mixtures were centrifuged at 18,407 × g for 15 min, and then supernatants were transferred to autosampler vials, and 5 μl was injected onto the LC-HRMS/MS system. Negative control incubations without enzyme were prepared to identify non-metabolically formed compounds. All incubations were done in duplicate.

[3] = Esterases activity screening, pooled human blood plasma; type: in vitro ADME; parameters: key: +, detected; –, not detected; settings: 100 μM 4F-MDMB-BINACA, duplicate
Method: as §1

[4] = target: T1, hCES1c (Homo sapiens, UniProt P23141); experiment: Esterases activity screening, hCES1c; type: in vitro ADME; parameters: key: +, detected; –: −, not detected; settings: 100 μM 4F-MDMB-BINACA, 0.2 mg protein/ml, duplicate
T1 construct: purchased Corning
T1 sequence (P23141 18-566 isoform P23141-3 limits assumed): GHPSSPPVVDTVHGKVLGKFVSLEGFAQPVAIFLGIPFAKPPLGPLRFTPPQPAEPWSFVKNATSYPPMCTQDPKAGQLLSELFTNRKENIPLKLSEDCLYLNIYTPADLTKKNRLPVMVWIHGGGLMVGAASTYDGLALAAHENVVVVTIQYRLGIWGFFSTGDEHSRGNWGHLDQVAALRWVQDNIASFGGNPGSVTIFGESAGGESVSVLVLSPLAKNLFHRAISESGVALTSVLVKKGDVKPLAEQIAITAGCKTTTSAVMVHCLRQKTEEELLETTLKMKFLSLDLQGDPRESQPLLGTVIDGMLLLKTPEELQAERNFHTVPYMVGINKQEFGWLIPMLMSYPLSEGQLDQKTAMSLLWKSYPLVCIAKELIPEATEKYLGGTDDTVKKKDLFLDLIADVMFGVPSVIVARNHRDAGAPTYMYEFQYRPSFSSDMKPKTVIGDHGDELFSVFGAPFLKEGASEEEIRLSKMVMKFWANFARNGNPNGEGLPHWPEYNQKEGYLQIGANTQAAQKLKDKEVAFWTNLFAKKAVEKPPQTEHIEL
Method: as §1

[5] = Esterases activity screening, pHLM; type: in vitro ADME, human; parameters: key: +, detected; –: −, not detected; settings: 100 μM 4F-MDMB-BINACA, 0.2 mg protein/ml, duplicate
Method: as §1

[6] = target: T2, hCES2 (Homo sapiens, UniProt O00748); experiment: Esterases activity screening, hCES2; type: in vitro ADME; parameters: key: +, detected; –, not detected; settings: 100 μM 4F-MDMB-BINACA, 0.2 mg protein/ml, duplicate
T2 construct: purchased Corning
T2 sequence (O00748 27-559): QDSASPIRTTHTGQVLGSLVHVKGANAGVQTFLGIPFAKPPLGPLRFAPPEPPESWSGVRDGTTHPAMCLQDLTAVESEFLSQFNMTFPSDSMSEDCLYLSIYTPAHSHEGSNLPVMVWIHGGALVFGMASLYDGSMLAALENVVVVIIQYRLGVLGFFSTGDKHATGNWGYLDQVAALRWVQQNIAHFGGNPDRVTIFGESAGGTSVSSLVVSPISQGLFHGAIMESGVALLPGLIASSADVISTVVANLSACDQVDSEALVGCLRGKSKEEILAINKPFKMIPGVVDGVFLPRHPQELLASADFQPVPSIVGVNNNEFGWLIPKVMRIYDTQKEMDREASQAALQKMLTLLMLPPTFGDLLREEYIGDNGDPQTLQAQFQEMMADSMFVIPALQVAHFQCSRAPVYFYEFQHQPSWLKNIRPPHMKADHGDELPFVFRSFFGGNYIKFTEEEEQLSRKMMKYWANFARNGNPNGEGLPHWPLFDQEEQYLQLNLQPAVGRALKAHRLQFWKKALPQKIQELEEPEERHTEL
Method: as §1

Structure (SMILES): COC(=O)C(NC(=O)c1nn(CCCCF)c2ccccc12)C(C)(C)C (centres unmarked) [4F-MDMB-BINACA, methyl 2-[1-(4-fluorobutyl)-1H-indazole-3-carbonyl]amino-3,3-dimethylbutanoate]
- Number of phase I metabolites identified in pHLM incubations [1]: 11

Structure (SMILES): O=C(O)c1nn(CCCCF)c2ccccc12 [MB1]
- Detection of metabolite in incubation with pHLS9 [2]: +
- Detection of metabolite in incubation with pHBP [3]: –
- Detection of metabolite in incubation with hCES1c [4]: +
- Detection of metabolite in incubation with pHLM [5]: +
- Detection of metabolite in incubation with hCES2 [6]: –

Structure (SMILES): CC(C)(C)C(NC(=O)c1nn(CCCCF)c2ccccc12)C(=O)O (centres unmarked) [MB8]
- Detection of metabolite in incubation with pHLS9 [2]: +
- Detection of metabolite in incubation with pHBP [3]: –
- Detection of metabolite in incubation with hCES1c [4]: +
- Detection of metabolite in incubation with pHLM [5]: +
- Detection of metabolite in incubation with hCES2 [6]: –

— article PMC7380166, “How to Study the Metabolism of New Psychoactive Substances for the Purpose of Toxicological Screenings—A Follow-Up Study Comparing Pooled Human Liver S9, HepaRG Cells, and Zebrafish Larvae” (Frontiers in Chemistry, 2020)
